Data on 2 compounds can be found in publication doi:10.1101/580449v1 (biorxiv, 2019).

Assay [1] deals with T1, CSTZM (wildtype sequence) (Zea mays, UniProt B4FZ94).
T1 sequence (B4FZ94 1-322): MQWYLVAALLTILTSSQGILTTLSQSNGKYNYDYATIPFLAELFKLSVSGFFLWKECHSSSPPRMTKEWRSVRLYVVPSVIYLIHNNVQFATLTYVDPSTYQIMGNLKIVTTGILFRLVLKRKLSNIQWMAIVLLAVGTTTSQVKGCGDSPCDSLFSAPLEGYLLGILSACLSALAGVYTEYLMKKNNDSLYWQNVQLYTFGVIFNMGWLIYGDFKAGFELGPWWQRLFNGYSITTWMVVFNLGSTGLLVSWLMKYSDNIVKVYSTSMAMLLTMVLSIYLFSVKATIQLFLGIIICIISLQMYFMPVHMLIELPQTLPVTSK
Kind of assay: GFP-thermal shift titration. It counts as binding.

The next assay deals with T2, hCST (Homo sapiens, UniProt P78382).
T2 sequence (P78382 1-337): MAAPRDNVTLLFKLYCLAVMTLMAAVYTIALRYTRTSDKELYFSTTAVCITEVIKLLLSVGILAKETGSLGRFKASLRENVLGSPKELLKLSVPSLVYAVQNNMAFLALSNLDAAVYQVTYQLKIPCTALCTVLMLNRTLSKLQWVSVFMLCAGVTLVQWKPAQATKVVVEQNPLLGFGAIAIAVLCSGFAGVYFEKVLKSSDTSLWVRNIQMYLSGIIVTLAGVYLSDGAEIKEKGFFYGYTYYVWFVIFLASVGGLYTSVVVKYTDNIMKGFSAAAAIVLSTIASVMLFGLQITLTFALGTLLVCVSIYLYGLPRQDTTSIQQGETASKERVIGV
Kind of assay: GFP-thermal shift titration. It counts as binding.

By Kd is commonly meant the equilibrium constant for the complex coming apart. As for `CC(=O)N[C@H]1[C@H]([C@H](O)[C@H](O)CO)O[C@](OP(=O)(O)OC[C@H]2O[C@@H](n3ccc(N)nc3=O)[C@H](O)[C@@H]2O)(C(=O)O)C[C@@H]1O` [CMP-sialic acid], the Kd came to 3100 ± 200 µM in assay [1] and 1500 ± 300 µM on hCST.

Take `Nc1ccn([C@@H]2O[C@H](COP(=O)(O)O)[C@@H](O)[C@H]2O)c(=O)n1` [CMP]: the Kd (in assay [1]; on hCST) was 40 µM throughout.
